From US8088819B2, “Derivatives of substituted 3-phenyl-1-(phenylthienyl)propan-1-ones and of 3-phenyl-1-(phenylfuranyl) propan-1-ones, preparation and use” (priority 2006, dated 2012)

Experiments:
hPPARalpha [1] = target: T1, hPPARalpha (Homo sapiens, UniProt Q07869); assay: PPAR activation: Gal4-hPPARα chimera luciferase transactivation in COS-7 cells, Method 2; type: cell-based; details: COS-7, 24 h; for EC50: 1% Ultroser; for Emax: maximum percentage response relative to the reference phenofibric acid, read-out: hPPARalpha % max
T1 construct: expressed in transfected cells; host or cells: COS-7 (monkey kidney fibroblasts)
T1 sequence (Q07869 239-466 limits assumed): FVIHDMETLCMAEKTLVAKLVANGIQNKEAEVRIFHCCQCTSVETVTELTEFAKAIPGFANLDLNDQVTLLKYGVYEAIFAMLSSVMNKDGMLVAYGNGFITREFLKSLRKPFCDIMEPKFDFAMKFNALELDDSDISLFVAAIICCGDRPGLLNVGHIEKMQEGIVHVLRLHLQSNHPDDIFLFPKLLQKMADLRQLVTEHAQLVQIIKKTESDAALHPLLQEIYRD
Protocol: (§1) The activation of the PPARs was evaluated in vitro on a line of monkey kidney fibroblasts (COS-7) by measuring the transcriptional activity of chimeras constituted of the DNA binding domain of the Gal4 transcription factor of yeast and the ligand binding domain of the various PPARs. The compounds were tested at doses between 10^−5 and […] on the chimeras Gal4-PPARα, γ or δ, and the corresponding EC50 values were determined.
(§2) The principle, the cells and the plasmids used for example 5 were also employed in this example. Only the application of the transfection stage is slightly different. The details are presented below.
(§3) The adherent COS-7 cells are transfected with 40 μg of DNA per 225 cm^2 dish, with a pGal4-PPAR/Gal4(RE)_TkpGL3 ratio of 1/10, in the presence of 10% fetal calf serum. The cells are then detached and seeded in the absence of serum in 384-well plates (2×10^4 cells/well) and incubated for 4 hours at 37° C. The compounds are then diluted in a 96-well plate and transferred to the 384-well plate. Activation with the test compounds is carried out for an additional 24 h at 37° C. in the presence of 1% of Ultroser™ lipid-free synthetic serum (Biosepra). These last 2 stages are automated using a Genesis Freedom 200™ station (Tecan). At the end of the experiment, the cells are lysed and the luciferase activity is determined using the Steady-Lite™ HTS (Perkin Elmer) following the supplier's recommendations.

[2] = test system: target genes of PPARδ in murine myocytes (C2C12); assay: Expression of target genes of PPARδ (PDK4, CPT1b, UCP2, UCP3) in murine myocytes, quantitative RT-PCR; type: cell-based; details: murine myocytes in vitro
Text: It is established that regulation of the expression of these genes is directly controlled by PPARδ in this cell type. The more the expression of the genes is increased, the greater the stimulating action of the compound according to the invention on metabolism in the muscle cells.
Cells from the murine cell line C2C12 (obtained from ECACC) are cultivated in DMEM medium (Gibco; 41965-039) with addition of 1% L-glutamine (Gibco; 25030), 1% of penicillin/streptomycin (VWR; BWSTL0022/100) and 10% decomplemented fetal calf serum (FCS. Gibco; 10270-106).
The cells are seeded on 24-well plates at a density of 50·10^3 cells/well. At confluence, the medium is replaced with a differentiating medium (basal medium with addition of 2% of horse serum (Gibco; 26050-088)), then incubated at 37° C. and 5% CO2 for 4 days in order to differentiate them to myocytes.
After 5 days of differentiation, the cells are put in a deprivation medium (basal medium without serum) for 6 hours. The cells are then treated with the compounds according to the invention in the deprivation medium. Compounds 2, 4, 7, 11, 39, 40, 46, 49 and 72 were in dose effect, corresponding to 1×, 10× and 100× their EC50 PPARδ. The compounds according to the invention were dissolved in dimethylsulfoxide (DMSO, Sigma; D5879). The cells were treated for 24 h at 37° C., 5% CO2. The effect of the compounds according to the invention was compared with the effect of DMSO alone.
After treatment, the total RNA is extracted from the cells using the NucleoSpine® 96 RNA kit (Macherey Nagel, Hoerdt, France) following the manufacturer's instructions.
1 μg of total RNA (quantified based on the UV spectrophotometer reading) was then reverse-transcribed to complementary DNA by reaction for 1 hour at 37° C. in a total volume of 30 μl containing buffer 1× (Invitrogen), 1.5 mM of DTT, 0.18 mM of dNTPs (Promega), 200 ng of pdN6 (Amersham), 30 U of RNase inhibitor (Promega) and 1 μl of MMLV-RT (Invitrogen).
The quantitative PCR experiments were carried out using the MyiQ Single-Color Real-Time PCR Detection System (Biorad, Marnes-la-Coquette, France) and were performed using the iQ SYBR Green Supermix kit following the supplier's recommendations, in 96-well plates, on 5 μl of diluted reverse-transcription reaction mixtures with a hybridization temperature of 60° C. Primer pairs specific to the PDK4, CPT1b, UCP2 and UCP3 genes under investigation were used:
The amount of fluorescence emitted is directly proportional to the amount of complementary DNA present at the start of the reaction and amplified during PCR. For each target investigated, a range is produced by successive dilutions of a pool constituted of a few microliters of various reverse-transcription reaction mixtures. The relative expression levels of each target are thus determined using the efficacy curves obtained with the points in the range.
The levels of expression of the genes of interest were then normalized relative to the level of expression of the reference gene 36B4 (whose specific primers are: sense primer: 5′-[…]-3′ (SEQ ID No. 19) and antisense primer: 5′-[…]-3′ (SEQ ID No. 20)). The induction factor, i.e. the ratio of the relative signal (induced by the compound according to the invention) to the mean of the relative values of the control group, was then calculated. The higher this factor, the greater the activating character of the compounds according to the invention with respect to gene expression. The final result is represented as the mean of the induction values in each experimental group.

hPPARgamma [3] = target: T2, hPPARgamma (Homo sapiens, UniProt P37231); assay: PPAR activation: Gal4-hPPARγ chimera luciferase transactivation in COS-7 cells, Method 2; type: cell-based; details: COS-7, 24 h, Method 2; for Emax: maximum percentage response relative to the reference rosiglitazone, read-out: hPPARgamma % max; for EC50: 1% Ultroser, read-out: hPPARgamma EC50
T2 construct: expressed in transfected cells; host or cells: COS-7 (monkey kidney fibroblasts)
T2 sequence (P37231 238-503 limits assumed): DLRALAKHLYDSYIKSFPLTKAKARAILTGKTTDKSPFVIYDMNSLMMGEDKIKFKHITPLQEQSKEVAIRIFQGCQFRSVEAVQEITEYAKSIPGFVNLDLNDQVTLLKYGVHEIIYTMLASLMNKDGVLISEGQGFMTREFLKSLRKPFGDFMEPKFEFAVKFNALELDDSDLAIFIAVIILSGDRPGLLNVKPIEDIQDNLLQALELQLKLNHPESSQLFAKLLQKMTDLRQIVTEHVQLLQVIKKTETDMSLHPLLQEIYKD
Protocol: The activation of the PPARs was evaluated in vitro on a line of monkey kidney fibroblasts (COS-7) by measuring the transcriptional activity of chimeras constituted of the DNA binding domain of the Gal4 transcription factor of yeast and the ligand binding domain of the various PPARs.
Only the application of the transfection stage is slightly different. The details are presented below.
as §3

hPPARdelta [4] = target: T3, hPPARdelta (Homo sapiens, UniProt Q03181); assay: PPAR activation: Gal4-hPPARδ chimera luciferase transactivation in COS-7 cells, Method 2; type: cell-based; details: COS-7, 24 h; for EC50: 1% Ultroser; for Emax: maximum percentage response relative to the reference GW501516, read-out: hPPARdelta % max
T3 construct: expressed in transfected cells; host or cells: COS-7 (monkey kidney fibroblasts)
T3 sequence (Q03181 211-439 limits assumed): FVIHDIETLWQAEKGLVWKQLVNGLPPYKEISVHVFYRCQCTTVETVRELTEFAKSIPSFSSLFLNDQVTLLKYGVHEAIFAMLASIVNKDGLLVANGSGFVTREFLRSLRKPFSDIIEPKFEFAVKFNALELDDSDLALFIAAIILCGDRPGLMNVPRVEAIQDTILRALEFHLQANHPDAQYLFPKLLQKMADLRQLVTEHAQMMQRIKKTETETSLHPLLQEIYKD
Protocol: as §1, §2, §3

hPPARgamma [5] = target: T2, hPPARgamma; assay: PPAR activation: Gal4-hPPARγ chimera luciferase transactivation in COS-7 cells, Method 1; type: cell-based; details: COS-7, 24 h; for Emax: maximum percentage response relative to the reference rosiglitazone, read-out: hPPARgamma % max
Protocol: as §1
(§4) The COS-7 cells were obtained from the ATCC and were cultivated in DMEM medium supplemented with 10% (v/v) of fetal calf serum, 100 U/ml of penicillin (Gibco, Paisley, UK) and 2 mM of L-glutamine (Gibco, Paisley, UK). The cells were incubated at 37° C. in a humid atmosphere containing 5% CO2.
(§5) The plasmids Gal4(RE)_TkpGL3, pGal4-hPPARα, pGal4-hPPARγ, pGal4-hPPARδ and pGal4-φ are described in the literature (Raspe E et al., 1999). The constructs pGal4-hPPARα, pGal4-hPPARγ and pGal4-hPPARδ were obtained by cloning DNA fragments amplified by PCR corresponding to the DEF domains of the human nuclear receptors PPARα, PPARγ and PPARδ in the pGal4-φ vector.
(§6) The COS-7 cells in suspension were transfected with 150 ng of DNA per well, with a pGal4-PPAR/Gal4(RE)_TkpGL3 ratio of 1/10, in the presence of 10% fetal calf serum. The cells were seeded in 96-well plates (4×10^4 cells/well) and then incubated at 37° C. for 24 hours. Activation with the test compounds is carried out for 24 h at 37° C. in serum-free medium. At the end of the experiment, the cells were lysed and the luciferase activity was determined using the Steady-Lite™ HTS (Perkin Elmer) following the supplier's recommendations.

hPPARdelta [6] = target: T3, hPPARdelta; assay: PPAR activation: Gal4-hPPARδ chimera luciferase transactivation in COS-7 cells, Method 1; type: cell-based; details: COS-7, 24 h; for Emax: maximum percentage response relative to the reference GW501516, read-out: hPPARdelta % max
Protocol: as §1, §4, §5, §6

hPPARalpha [7] = target: T1, hPPARalpha; assay: PPAR activation: Gal4-hPPARα chimera luciferase transactivation in COS-7 cells, Method 1; type: cell-based; details: COS-7, 24 h; for Emax: maximum percentage response relative to the reference phenofibric acid, read-out: hPPARalpha % max
Protocol: as §1, §4, §5, §6

Row | Structure (SMILES) | EC50 (hPPARalpha [1]) | Emax (hPPARalpha [1]) | melting point | Emax (hPPARgamma [3]) | EC50 (hPPARgamma [3]) | EC50 (hPPARdelta [4]) | Emax (hPPARdelta [4]) | EC50 (hPPARgamma [5]) | Emax (hPPARgamma [5]) | EC50 (hPPARdelta [6]) | Emax (hPPARdelta [6]) | Emax (hPPARalpha [7]) | EC50 (hPPARalpha [7]) | expression of genes involved in carbohydrate and lipid metabolism and in thermoregulation [2]
1 | COC(CCc1ccc(OC(C)(C)C(=O)O)c(Cl)c1Cl)c1ccc(-c2ccc(C(F)(F)F)cc2)o1 (stereo not drawn) [Compound 72, 2-(2,3-dichloro-4-(3-methoxy-3-(5-(4-(trifluoromethyl)phenyl)fur-2-yl)propyl)phenoxy)-2-methylpropanoic acid] | 270 nM | 59% | – | 70% | 160 nM | – | 97% | – | – | – | – | – | – | stimulating effects
2 | Cc1cc(CCC(=O)c2ccc(-c3ccc(C(F)(F)F)cc3)s2)cc(C)c1OC(C)(C)C(=O)O [Compound 48, 2-(2,6-dimethyl-4-(3-oxo-3-(5-(4-(trifluoromethyl)phenyl)thien-2-yl)propyl)phenoxy)-2-methylpropanoic acid] | – | – | 157 to 158 °C | – | – | – | – | 560 nM | 85% | 6 nM | 86% | 49% | – | stimulating effects
3 | CC(C)(Oc1ccc(CCC(=O)c2ccc(-c3ccc(C(F)(F)F)cc3)s2)c(F)c1F)C(=O)O [Compound 46, 2-(2,3-difluoro-4-(3-oxo-3-(5-(4-(trifluoromethyl)phenyl)thien-2-yl)propyl)phenoxy)-2-methylpropanoic acid] | – | – | 165 to 166 °C | – | – | – | – | – | 30% | 18 nM | 105% | 58% | 11 nM | stimulating effects

Continued, in another order:

Row | EC50 (hPPARalpha [1]) | Emax (hPPARalpha [1]) | melting point | Emax (hPPARgamma [3]) | EC50 (hPPARgamma [3]) | EC50 (hPPARdelta [4]) | Emax (hPPARdelta [4]) | EC50 (hPPARgamma [5]) | Emax (hPPARgamma [5]) | EC50 (hPPARdelta [6]) | Emax (hPPARdelta [6]) | Emax (hPPARalpha [7]) | EC50 (hPPARalpha [7]) | Structure (SMILES) | expression of genes involved in carbohydrate and lipid metabolism and in thermoregulation [2]
4 | 590 nM | 35% | 46 to 48 °C | 32% | 990 nM | 5 nM | 78.3% | – | – | – | – | – | – | COC(CCc1ccc(OC(C)(C)C(=O)O)c(Cl)c1Cl)c1ccc(-c2ccc(C(F)(F)F)cc2)s1 (stereo not drawn) [Compound 40, 2-(2,3-dichloro-4-(3-methoxy-3-(5-(4-(trifluoromethyl)phenyl)-thien-2-yl)propyl)phenoxy)-2-methylpropanoic acid] | stimulating effects
5 | 1010 nM | 36% | 75 to 77 °C | 52% | 550 nM | 6 nM | 90% | – | – | – | – | – | – | CC(C)(Oc1ccc(CCC(OCc2cccnc2)c2ccc(-c3ccc(C(F)(F)F)cc3)s2)c(Cl)c1Cl)C(=O)O (stereo not drawn) [Compound 39, 2-(2,3-dichloro-4-(3-(pyridin-3-ylmethoxy)-3-(5-(4-(trifluoromethyl)phenyl)thien-2-yl)propyl)phenoxy)-2-methylpropanoic acid] | stimulating effects
